Test results published in patent publication US4723008A, “Isoprenylamine derivatives” (priority 1981, dated 1988).

Test system: vaccinia virus
Test: not given
Type: in vivo, vaccinia virus; ICR female mice
Conditions: 50 mg/kg intraperitoneally 24 hours before inoculation; lesions counted on 8th day

Going from `COc1ccc(CN(CC=C(C)CCC=C(C)CCC=C(C)CCC=C(C)CCC=C(C)CCC=C(C)CCC=C(C)CCC=C(C)CCC=C(C)C)CC=C(C)CCC=C(C)CCC=C(C)CCC=C(C)CCC=C(C)CCC=C(C)CCC=C(C)CCC=C(C)CCC=C(C)C)cc1OC` to `CC(C)=CCCC(C)=CCCC(C)=CCCC(C)=CCCC(C)=CCCC(C)=CCCC(C)=CCCC(C)=CCCC(C)=CCN(CC=C(C)CCC=C(C)CCC=C(C)CCC=C(C)CCC=C(C)CCC=C(C)CCC=C(C)CCC=C(C)CCC=C(C)C)CCCCc1ccccc1`, the “Prevention from vaccinia infection (Pock inhibition rate %)” value (from here on “Prevention … (Pock inhibition rate %)”) rises from 32.4% to 34.1%.

First: COc1ccc(CN(CC=C(C)CCC=C(C)CCC=C(C)CCC=C(C)CCC=C(C)CCC=C(C)CCC=C(C)CCC=C(C)CCC=C(C)CCC=C(C)C)CC=C(C)CCC=C(C)CCC=C(C)CCC=C(C)CCC=C(C)CCC=C(C)CCC=C(C)CCC=C(C)CCC=C(C)CCC=C(C)C)cc1
Second: CC(C)=CCCC(C)=CCCC(C)=CCCC(C)=CCCC(C)=CCCC(C)=CCCC(C)=CCCC(C)=CCCC(C)=CCCC(C)=CCN(CCO)Cc1ccccc1 [drawing 49]
The “Prevention … (Pock inhibition rate %)” value of the first is higher: 38.8% for the first, 38.4% for the second.

Going from `CC(C)=CCCC(C)=CCCC(C)=CCCC(C)=CCCC(C)=CCCC(C)=CCCC(C)=CCCC(C)=CCCC(C)=CCCC(C)=CCN1CCOCCOCCNCCOCCOCC1` [drawing 37] to `CC(C)=CCCC(C)=CCCC(C)=CCCC(C)=CCCC(C)=CCCC(C)=CCCC(C)=CCCC(C)=CCCC(C)=CCCC(C)=CCN1CCN(Cc2ccccc2)CC1` [drawing 48], the “Prevention … (Pock inhibition rate %)” value rises from 57.1% to 64.0%.

Going from `CC(C)=CCCC(C)=CCCC(C)=CCCC(C)=CCCC(C)=CCCC(C)=CCCC(C)=CCCC(C)=CCCC(C)=CCCC(C)=CCN(CCO)CC(O)c1ccccc1` (stereo not shown) [drawing 38] to `CC(C)=CCCC(C)=CCCC(C)=CCCC(C)=CCCC(C)=CCCC(C)=CCCC(C)=CCCC(C)=CCCC(C)=CCN(CCO)Cc1ccccc1` [drawing 44], the “Prevention … (Pock inhibition rate %)” value falls from 60.1% to 53.4%.

First: CC(C)=CCCC(C)=CCCC(C)=CCCC(C)=CCCC(C)=CCCC(C)=CCCC(C)=CCCC(C)=CCCC(C)=CCN(CCc1ccccc1)CC(O)CNC(C)(C)C (stereo not shown) [drawing 41]
Second: CC(C)=CCCC(C)=CCCC(C)=CCCC(C)=CCCC(C)=CCCC(C)=CCCC(C)=CCCC(C)=CCCC(C)=CCN(CCc1ccccc1)CC(O)CN1CCN(CCO)CC1 (stereo not shown) [drawing 42]
The “Prevention … (Pock inhibition rate %)” value of the first is lower: 82.9% for the first, 85.6% for the second.

For `CC(C)=CCCC(C)=CCCC(C)=CCCC(C)=CCCC(C)=CCCC(C)=CCCC(C)=CCCC(C)=CCCC(C)=CCN(Cc1ccccc1)Cc1ccccc1` [drawing 43], the “Prevention … (Pock inhibition rate %)” value was 50.3%.

Test system: tumor cells KN7 -8
Test: Anti-tumor activity (survivors on the 30th day)
Type: in vivo, Balb/c male mice
Conditions: 30 mg/kg intraperitoneally 3 times (24 hours before, second and fifth day after inoculation of 5×10^5 cells); survivors/group
Source text: Groups, each consisting of Balb/c male mice weighing about 20 g, were intraperitoneally administered 5×10^5 of tumor cells KN7 -8.

For `CC(C)=CCCC(C)=CCCC(C)=CCCC(C)=CCCC(C)=CCCC(C)=CCCC(C)=CCCC(C)=CCCC(C)=CCN(CCCN)CCCN`, the “Anti-tumor activity (Survivor on the 30th day)” value (“Anti-tumor activity” for short) was 4/6.
For `CC(C)=CCCC(C)=CCCC(C)=CCCC(C)=CCCC(C)=CCCC(C)=CCCC(C)=CCCC(C)=CCCC(C)=CCCC(C)=CCN1CCOCCOCCNCCOCCOCC1` [drawing 56], the “Anti-tumor activity” value was 3/6.
For `CC(C)=CCCC(C)=CCCC(C)=CCCC(C)=CCCC(C)=CCCC(C)=CCCC(C)=CCCC(C)=CCCC(C)=CCCC(C)=CCN(Cc1ccccc1)CC(O)CN(CCO)CCO` (stereo not shown) [drawing 57], the “Anti-tumor activity” value was 1/6.
With `CC(C)=CCCC(C)=CCCC(C)=CCCC(C)=CCCC(C)=CCCC(C)=CCCC(C)=CCCC(C)=CCCC(C)=CCCC(C)=CCN(Cc1ccccc1)CC(O)CNC(C)(C)C` (stereo not shown) [drawing 58] the “Anti-tumor activity” value was 2/6.
In the case of `CC(C)=CCCC(C)=CCCC(C)=CCCC(C)=CCCC(C)=CCCC(C)=CCCC(C)=CCCC(C)=CCCC(C)=CCN(CCc1ccccc1)CC(O)CN1CCN(CCO)CC1` (stereo not shown) [drawing 59], the “Anti-tumor activity” value is reported as 4/6.

Test system: not listed separately
Test: Toxicity, 50% lethal dose, intravenous
Conditions: mouse, in vivo, ddY male mice, read-out: LD50 (Intravenous administration mg/kg)
Source text: Using ddY male mice weighing 20-25 g, 50% lethal dose of each test compound intravenously administered was obtained, the results of which are shown in Table 6.

First: CC(C)=CCCC(C)=CCCC(C)=CCCC(C)=CCCC(C)=CCCC(C)=CCCC(C)=CCCC(C)=CCCC(C)=CCCC(C)=CCN(CCO)CC(O)c1ccccc1 (stereo not shown) [drawing 62]
Second: CC(C)=CCCC(C)=CCCC(C)=CCCC(C)=CCCC(C)=CCCC(C)=CCCC(C)=CCCC(C)=CCCC(C)=CCCC(C)=CCN(Cc1ccccc1)CC(O)CN(CCO)CCO (stereo not shown) [drawing 63]
The LD50 of the first is 1.6-fold higher: 258 mg/kg for the first, 162 mg/kg for the second.

First: CC(C)=CCCC(C)=CCCC(C)=CCCC(C)=CCCC(C)=CCCC(C)=CCCC(C)=CCCC(C)=CCCC(C)=CCN(CCc1ccccc1)CC(O)CNC(C)(C)C (stereo not shown) [drawing 64]
Second: CC(C)=CCCC(C)=CCCC(C)=CCCC(C)=CCCC(C)=CCCC(C)=CCCC(C)=CCCC(C)=CCCC(C)=CCN(CCO)Cc1ccccc1 [drawing 66]
The LD50 of the first is 28-fold lower: 28 mg/kg for the first, 791 mg/kg for the second.

`CC(C)=CCCC(C)=CCCC(C)=CCCC(C)=CCCC(C)=CCCC(C)=CCCC(C)=CCCC(C)=CCCC(C)=CCN(CCc1ccccc1)CC(O)CN1CCN(CCO)CC1` (stereo not shown) [drawing 65] gave an LD50 of 338 mg/kg.

Test system: Human interferon (normal diploid cells (fibroblast) originated from human being)
Test: Human interferon inducing activity (in vitro), 3H-uridine-uptake inhibition
Type: cell-based
Conditions: 25 n molar suspension
Method: (5) Human interferon inducing activity (in vitro)
Interferon was induced according to the method of Edward A. Havell et al. by treating normal diploid cells (fibroblast) originated from human being with each test compound in the form of ethanol solution diluted with PBS (--), (25 n molar suspension). Using the radioisotope microassay method or H. Ishitsuka et al., interferon was measured in terms of 3H-uridine-uptakeinhibition rate.

Compared with `COc1ccc(CN(CC=C(C)CCC=C(C)C)CC=C(C)CCC=C(C)C)cc1OC`, `CC(C)=CCCC(C)=CCCC(C)=CCCC(C)=CCCC(C)=CCCC(C)=CCCC(C)=CCCC(C)=CCCC(C)=CCN(CCO)Cc1ccccc1` [drawing 74] is lower in “Human interferon 3H-uridine-uptake inhibition rate (%)” value: 68.4% for the first, 5.1% for the second.

First: CC(C)=CCCC(C)=CCCC(C)=CCCC(C)=CCCC(C)=CCCC(C)=CCCC(C)=CCCC(C)=CCCC(C)=CCCC(C)=CCN1CCOCCOCCNCCOCCOCC1 [drawing 67]
Second: CC(C)=CCCC(C)=CCCC(C)=CCCC(C)=CCCC(C)=CCCC(C)=CCCC(C)=CCCC(C)=CCCC(C)=CCCC(C)=CCN1CCN(Cc2ccccc2)CC1 [drawing 78]
The “Human interferon 3H-uridine-uptake inhibition rate (%)” value of the first is higher: 28.3% for the first, 3.6% for the second.

Going from `CC(C)=CCCC(C)=CCCC(C)=CCCC(C)=CCCC(C)=CCCC(C)=CCCC(C)=CCCC(C)=CCCC(C)=CCCC(C)=CCN(CCO)CC(O)c1ccccc1` (stereo not shown) [drawing 68] to `CC(C)=CCCC(C)=CCCC(C)=CCCC(C)=CCCC(C)=CCCC(C)=CCCC(C)=CCCC(C)=CCCC(C)=CCCC(C)=CCN(CCO)Cc1ccccc1` [drawing 79], the “Human interferon 3H-uridine-uptake inhibition rate (%)” value rises from 4.3% to 25.4%.

Going from `CC(C)=CCCC(C)=CCCC(C)=CCCC(C)=CCCC(C)=CCCC(C)=CCCC(C)=CCCC(C)=CCCC(C)=CCCC(C)=CCN(Cc1ccccc1)CC(O)CN(CCO)CCO` (stereo not shown) [drawing 69] to `CC(C)=CCCC(C)=CCCC(C)=CCCC(C)=CCCC(C)=CCCC(C)=CCCC(C)=CCCC(C)=CCCC(C)=CCCC(C)=CCN(Cc1ccccc1)CC(O)CNC(C)(C)C` (stereo not shown) [drawing 70], the “Human interferon 3H-uridine-uptake inhibition rate (%)” value falls from 61.3% to 59.8%.

Compared with `CC(C)=CCCC(C)=CCCC(C)=CCCC(C)=CCCC(C)=CCCC(C)=CCCC(C)=CCCC(C)=CCCC(C)=CCN(CCc1ccccc1)CC(O)CNC(C)(C)C` (stereo not shown) [drawing 71], `CC(C)=CCCC(C)=CCCC(C)=CCCC(C)=CCCC(C)=CCCC(C)=CCCC(C)=CCCC(C)=CCCC(C)=CCN(CCc1ccccc1)CC(O)CN1CCN(CCO)CC1` (stereo not shown) [drawing 72] is lower in “Human interferon 3H-uridine-uptake inhibition rate (%)” value: 32.6% for the first, 17.4% for the second.

In the case of `CC(C)=CCCC(C)=CCCC(C)=CCCC(C)=CCCC(C)=CCCC(C)=CCCC(C)=CCCC(C)=CCCC(C)=CCN(Cc1ccccc1)Cc1ccccc1` [drawing 73], the “Human interferon 3H-uridine-uptake inhibition rate (%)” value is reported as 4.4%.

Test system: vaccinia virus (vero cells)
Test: not given
Type: cell-based
Conditions: 50 n molar concentration

Going from `CC(C)=CCCC(C)=CCCC(C)=CCCC(C)=CCCC(C)=CCCC(C)=CCCC(C)=CCCC(C)=CCCC(C)=CCCC(C)=CCN(Cc1ccccc1)CC(O)CN(CCO)CCO` (stereo not shown) [drawing 83] to `CC(C)=CCCC(C)=CCCC(C)=CCCC(C)=CCCC(C)=CCCC(C)=CCCC(C)=CCCC(C)=CCCC(C)=CCCC(C)=CCN(CCO)Cc1ccccc1` [drawing 84], the “Anti-vaccinia virus activity (Plaque inhibition rate %)” value rises from 10.6% to 14.1%.
